{
  "source": "ChEMBL document CHEMBL6134788",
  "about": "“Development of naphthalimide hydrazide derivatives as potent antibacterial agents against carbapenem-resistant A. baumannii” (RSC Med Chem, 2024)",
  "assay_type_in_all_cases": "functional",
  "details_in_all_cases": "time 16-18 hrs, read-out: MIC100",
  "key": {"[1]": {"tested_on": "Escherichia coli", "test": "Antibacterial activity against Escherichia coli ATCC 25922 assessed as inhibition of bacterial growth incubated for 16 to 18 hrs by CLSI protocol based method"}, "[2]": {"tested_on": "Klebsiella pneumoniae", "test": "Antibacterial activity against Klebsiella pneumoniae BAA 1705 assessed as inhibition of bacterial growth incubated for 16 to 18 hrs by CLSI protocol based method"}, "[3]": {"tested_on": "Acinetobacter baumannii", "test": "Antibacterial activity against carbapenem-resistant Acinetobacter baumannii BAA 1605 assessed as inhibition of bacterial growth incubated for 16 to 18 hrs by CLSI protocol based method"}, "[4]": {"tested_on": "Staphylococcus aureus", "test": "Antibacterial activity against Staphylococcus aureus ATCC 29213 assessed as inhibition of bacterial growth incubated for 16 to 18 hrs by CLSI protocol based method"}, "[5]": {"tested_on": "Pseudomonas aeruginosa", "test": "Antibacterial activity against Pseudomonas aeruginosa ATCC 27853 assessed as inhibition of bacterial growth incubated for 16 to 18 hrs by CLSI protocol based method"}},
  "data": [
    {"smiles": "O=C(NNc1ccccc1)[C@@H](Cc1ccccc1)N1C(=O)c2cccc3cccc(c23)C1=O", "values": [
      {"measurement": "MIC", "setting": "[1]", "result": "> 64", "unit": "µg/mL"},
      {"measurement": "MIC", "setting": "[2]", "result": "> 64", "unit": "µg/mL"},
      {"measurement": "MIC", "setting": "[3]", "result": 8, "unit": "µg/mL"},
      {"measurement": "MIC", "setting": "[4]", "result": "> 64", "unit": "µg/mL"},
      {"measurement": "MIC", "setting": "[5]", "result": "> 64", "unit": "µg/mL"}
    ]},
    {"smiles": "O=C(CCCN1C(=O)c2cccc3cccc(c23)C1=O)NNc1ccccc1", "values": [
      {"measurement": "MIC", "setting": "[1]", "result": "> 64", "unit": "µg/mL"},
      {"measurement": "MIC", "setting": "[2]", "result": "> 64", "unit": "µg/mL"},
      {"measurement": "MIC", "setting": "[3]", "result": 4, "unit": "µg/mL"},
      {"measurement": "MIC", "setting": "[4]", "result": "> 64", "unit": "µg/mL"},
      {"measurement": "MIC", "setting": "[5]", "result": "> 64", "unit": "µg/mL"}
    ]},
    {"smiles": "O=C(CCN1C(=O)c2cccc3cccc(c23)C1=O)NNc1ccc([N+](=O)[O-])cc1", "values": [
      {"measurement": "MIC", "setting": "[1]", "result": "> 64", "unit": "µg/mL"},
      {"measurement": "MIC", "setting": "[2]", "result": "> 64", "unit": "µg/mL"},
      {"measurement": "MIC", "setting": "[3]", "result": 4, "unit": "µg/mL"},
      {"measurement": "MIC", "setting": "[4]", "result": "> 64", "unit": "µg/mL"},
      {"measurement": "MIC", "setting": "[5]", "result": "> 64", "unit": "µg/mL"}
    ]},
    {"smiles": "O=C(CCN1C(=O)c2cccc3cccc(c23)C1=O)NNc1cc(Cl)cc(Cl)c1", "values": [
      {"measurement": "MIC", "setting": "[1]", "result": "> 64", "unit": "µg/mL"},
      {"measurement": "MIC", "setting": "[2]", "result": "> 64", "unit": "µg/mL"},
      {"measurement": "MIC", "setting": "[3]", "result": "> 64", "unit": "µg/mL"},
      {"measurement": "MIC", "setting": "[4]", "result": "> 64", "unit": "µg/mL"},
      {"measurement": "MIC", "setting": "[5]", "result": "> 64", "unit": "µg/mL"}
    ]},
    {"smiles": "N#Cc1ccc(NNC(=O)CCN2C(=O)c3cccc4c(Br)ccc(c34)C2=O)cc1", "values": [
      {"measurement": "MIC", "setting": "[1]", "result": "> 64", "unit": "µg/mL"},
      {"measurement": "MIC", "setting": "[2]", "result": "> 64", "unit": "µg/mL"},
      {"measurement": "MIC", "setting": "[3]", "result": 4, "unit": "µg/mL"},
      {"measurement": "MIC", "setting": "[4]", "result": "> 64", "unit": "µg/mL"},
      {"measurement": "MIC", "setting": "[5]", "result": "> 64", "unit": "µg/mL"}
    ]},
    {"smiles": "N#Cc1ccc(NNC(=O)CN2C(=O)c3cccc4cccc(c34)C2=O)cc1", "values": [
      {"measurement": "MIC", "setting": "[1]", "result": "> 64", "unit": "µg/mL"},
      {"measurement": "MIC", "setting": "[2]", "result": "> 64", "unit": "µg/mL"},
      {"measurement": "MIC", "setting": "[3]", "result": 4, "unit": "µg/mL"},
      {"measurement": "MIC", "setting": "[4]", "result": "> 64", "unit": "µg/mL"},
      {"measurement": "MIC", "setting": "[5]", "result": "> 64", "unit": "µg/mL"}
    ]},
    {"smiles": "CO[C@H]1/C=C/O[C@@]2(C)Oc3c(C)c(O)c4c(O)c(c(/C=N/N5CCN(C)CC5)c(O)c4c3C2=O)NC(=O)/C(C)=C\\C=C\\[C@H](C)[C@H](O)[C@@H](C)[C@@H](O)[C@@H](C)[C@H](OC(C)=O)[C@@H]1C", "note": "[RIFAMPIN]", "values": [
      {"measurement": "MIC", "setting": "[3]", "result": 4, "unit": "µg/mL"}
    ]},
    {"smiles": "O=C(CCN1C(=O)c2cccc3c(Br)ccc(c23)C1=O)NNc1ccc(Cl)cc1", "values": [
      {"measurement": "MIC", "setting": "[1]", "result": "> 64", "unit": "µg/mL"},
      {"measurement": "MIC", "setting": "[2]", "result": "> 64", "unit": "µg/mL"},
      {"measurement": "MIC", "setting": "[3]", "result": 4, "unit": "µg/mL"},
      {"measurement": "MIC", "setting": "[4]", "result": "> 64", "unit": "µg/mL"},
      {"measurement": "MIC", "setting": "[5]", "result": "> 64", "unit": "µg/mL"}
    ]},
    {"smiles": "COc1ccc(NNC(=O)CCN2C(=O)c3cccc4cccc(c34)C2=O)cc1", "values": [
      {"measurement": "MIC", "setting": "[1]", "result": "> 64", "unit": "µg/mL"},
      {"measurement": "MIC", "setting": "[2]", "result": "> 64", "unit": "µg/mL"},
      {"measurement": "MIC", "setting": "[3]", "result": 4, "unit": "µg/mL"},
      {"measurement": "MIC", "setting": "[4]", "result": "> 64", "unit": "µg/mL"},
      {"measurement": "MIC", "setting": "[5]", "result": "> 64", "unit": "µg/mL"}
    ]},
    {"smiles": "N#Cc1ccc(NNC(=O)CCCCCN2C(=O)c3cccc4cccc(c34)C2=O)cc1", "values": [
      {"measurement": "MIC", "setting": "[1]", "result": "> 64", "unit": "µg/mL"},
      {"measurement": "MIC", "setting": "[2]", "result": "> 64", "unit": "µg/mL"},
      {"measurement": "MIC", "setting": "[3]", "result": "> 64", "unit": "µg/mL"},
      {"measurement": "MIC", "setting": "[4]", "result": "> 64", "unit": "µg/mL"},
      {"measurement": "MIC", "setting": "[5]", "result": "> 64", "unit": "µg/mL"}
    ]},
    {"smiles": "O=C(CCN1C(=O)c2cccc3cccc(c23)C1=O)NNc1ccccc1", "values": [
      {"measurement": "MIC", "setting": "[1]", "result": "> 64", "unit": "µg/mL"},
      {"measurement": "MIC", "setting": "[2]", "result": "> 64", "unit": "µg/mL"},
      {"measurement": "MIC", "setting": "[3]", "result": 8, "unit": "µg/mL"},
      {"measurement": "MIC", "setting": "[4]", "result": "> 64", "unit": "µg/mL"},
      {"measurement": "MIC", "setting": "[5]", "result": "> 64", "unit": "µg/mL"}
    ]},
    {"smiles": "O=C(CCN1C(=O)c2cccc3cccc(c23)C1=O)NNc1cc(F)cc(F)c1", "values": [
      {"measurement": "MIC", "setting": "[1]", "result": "> 64", "unit": "µg/mL"},
      {"measurement": "MIC", "setting": "[2]", "result": "> 64", "unit": "µg/mL"},
      {"measurement": "MIC", "setting": "[3]", "result": "> 64", "unit": "µg/mL"},
      {"measurement": "MIC", "setting": "[4]", "result": "> 64", "unit": "µg/mL"},
      {"measurement": "MIC", "setting": "[5]", "result": "> 64", "unit": "µg/mL"}
    ]},
    {"smiles": "O=C(CCN1C(=O)c2cccc3cccc(c23)C1=O)NNc1cccc(Br)c1", "values": [
      {"measurement": "MIC", "setting": "[1]", "result": "> 64", "unit": "µg/mL"},
      {"measurement": "MIC", "setting": "[2]", "result": "> 64", "unit": "µg/mL"},
      {"measurement": "MIC", "setting": "[3]", "result": "> 64", "unit": "µg/mL"},
      {"measurement": "MIC", "setting": "[4]", "result": "> 64", "unit": "µg/mL"},
      {"measurement": "MIC", "setting": "[5]", "result": "> 64", "unit": "µg/mL"}
    ]},
    {"smiles": "O=C(CCN1C(=O)c2cccc3c(Br)ccc(c23)C1=O)NNc1ccc(Br)cc1", "values": [
      {"measurement": "MIC", "setting": "[1]", "result": "> 64", "unit": "µg/mL"},
      {"measurement": "MIC", "setting": "[2]", "result": "> 64", "unit": "µg/mL"},
      {"measurement": "MIC", "setting": "[3]", "result": 4, "unit": "µg/mL"},
      {"measurement": "MIC", "setting": "[4]", "result": "> 64", "unit": "µg/mL"},
      {"measurement": "MIC", "setting": "[5]", "result": "> 64", "unit": "µg/mL"}
    ]}
  ]
}
